Experimental findings from paper PMC7082846 (ACS infectious diseases, 2019) are described below.

In brackets after ≈: the same amount, converted by molar mass. Several values for one entry are separate records, joined by “and”; a condition that tells them apart may be missing. Equal entries are not always repeated.

One may read the solubility as the concentration that dissolves in the medium under given conditions. A high value points to much dissolved substance. What is called half-life is how long it takes for the measured level to halve. Read a low half-life as rapid decline. The term Papp A→B denotes the apparent permeability from the apical to the basolateral side of a cell layer. A higher Papp A→B goes with ready permeation. By Papp B→A is commonly meant the apparent permeability from the basolateral to the apical side of a cell layer. The efflux ratio is the permeability from basolateral to apical divided by that in the opposite direction, in the common usage. A word on the fraction unbound: it is the share of the substance not bound to proteins or other matrix. The low end stands for extensive binding, the high end for weak binding.

Data set [1] has as its target T1, human STING (Homo sapiens, UniProt Q86WV6). Nature of the data set: ISG54 luciferase reporter assay in HepG2/STING/ISG54Luc cells. In kind it is cell-based.
The test system of data set [2] is cGAS-STING pathway. Nature of the data set: ISG54 luciferase reporter assay in HepAD38/cGAS-STING/ISG54Luc cells. In kind it is cell-based, human. The note with it: 4 h treatment. For orientation: Reporter assays use an easily measured gene product as a stand-in for the process of interest.
Data set [3] concerns the target human STING with truncation of carboxyl-terminal domain (CTD) (Homo sapiens, UniProt Q86WV6). The experiment in a line: ISG54 luciferase reporter assay in HepAD38/cGAS-STINGΔC/ISG54Luc cells. In kind it is cell-based. The note with it: 4 h treatment.
For data set [4], the system named is HepAD38/cGAS-STING/ISG54Luc cells. In kind it is cell-based. The conditions noted are these: human, 4 h.
The target in data set [5] is T1, human STING. Nature of the data set: Cytokine mRNA induction. The class given is cell-based. The note with it: 6 h, qRT-PCR. In general terms: Real-time PCR tracks product formation cycle by cycle.
For data set [6], the target named is T2, mouse STING (Mus musculus, UniProt Q3TBT3).
T2 sequence (Q3TBT3 1-378): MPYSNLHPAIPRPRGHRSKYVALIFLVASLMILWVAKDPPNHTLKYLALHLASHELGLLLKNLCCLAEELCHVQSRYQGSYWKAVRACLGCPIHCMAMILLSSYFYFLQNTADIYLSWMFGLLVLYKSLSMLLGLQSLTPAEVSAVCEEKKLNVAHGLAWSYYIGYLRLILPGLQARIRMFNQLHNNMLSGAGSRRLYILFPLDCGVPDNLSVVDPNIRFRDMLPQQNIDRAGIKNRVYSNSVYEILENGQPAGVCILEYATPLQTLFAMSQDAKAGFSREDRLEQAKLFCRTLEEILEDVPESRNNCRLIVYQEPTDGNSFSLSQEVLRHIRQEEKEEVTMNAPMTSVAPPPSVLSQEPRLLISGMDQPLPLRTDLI
The experiment in a line: IFN-β mRNA induction. The class given is cell-based. The note with it: HepG2/mSTING cells, 6 h, qRT-PCR.

The target of data set [7] is T1, human STING. Nature of the data set: IRF3 phosphorylation. In kind it is cell-based. The conditions noted are these: 100 μM, 2 h; HepG2/STING vs HepG2/STINGΔC cells.
In data set [8] the test system is THF cells. The experiment in a line: Cytotoxicity in THF cells. The class given is cell-based, human.
Data set [9] has as its system Dengue virus (DENV). The class given is cell-based, dengue virus (serotype 2, New Guinea C strain). The conditions noted are these: THF cells pre-treated 8 h.
In data set [10] the test system is Yellow fever virus (YFV). The class given is cell-based, Yellow fever virus (17D strain). The note with it: THF cells pre-treated 8 h.
The test system of data set [11] is Zika virus (ZIKV). The experiment in a line: Antiviral assay, pre-treated THF cells infected with ZIKV. The class given is cell-based, Zika virus (PRVABC59 strain). The conditions noted are these: THF cells pre-treated 8 h.
Data set [12] deals with PBMC-derived dendritic cells. Nature of the data set: CD80 expression by flow cytometry in PBMC-derived dendritic cells. The note with it: BNBC 50 μM or LPS 10 μg/ml, 48 h; gated from CD11c+ cells. The class given is cell-based, human. In general terms: Flow cytometry measures light scatter and fluorescence of single cells or particles in a stream.
A short description of data set [13]: Aqueous solubility in PBS. In kind it is physicochemical.
Data set [14] can be described thus: Metabolic stability in human liver microsomes. In kind it is in vitro ADME.
The nature of data set [15]: Metabolic stability in mouse liver microsomes. In kind it is in vitro ADME.
Data set [16] is described as follows: Caco-2 permeability. In kind it is in vitro ADME. The conditions noted are these: human.
The subject of data set [17] is cytochrome P450 (Cyp) enzymes (CYP1A2, 2A6, 2B6, 2C8, 2C9, 2C19, 2D6, CYP2E1 and 3A4). Nature of the data set: Cytochrome P450 inhibition panel. The conditions noted are these: inhibition = greater than 50% inhibition at 10 μM. In kind it is in vitro ADME.
A short description of data set [18]: Plasma protein binding, human. The class given is in vitro ADME.
The nature of data set [19]: Plasma protein binding, mouse. In kind it is in vitro ADME.
Data set [20] has as its system THF cells. The experiment in a line: Cytokine response.
Data set [21] concerns human PBMCs. The experiment in a line: Cytokine mRNA induction. The conditions noted are these: 6 h, qRT-PCR.
The test system of data set [22] is PBMC-derived dendritic cells. The experiment in a line: Cytokine mRNA induction. The conditions noted are these: BNBC 100 μM or LPS 10 μg/ml, 6 h.
Setting [23] is: MOI 0.1, 48 h, qRT-PCR, maximal reduction.

T1 sequence (Q86WV6 whole entry): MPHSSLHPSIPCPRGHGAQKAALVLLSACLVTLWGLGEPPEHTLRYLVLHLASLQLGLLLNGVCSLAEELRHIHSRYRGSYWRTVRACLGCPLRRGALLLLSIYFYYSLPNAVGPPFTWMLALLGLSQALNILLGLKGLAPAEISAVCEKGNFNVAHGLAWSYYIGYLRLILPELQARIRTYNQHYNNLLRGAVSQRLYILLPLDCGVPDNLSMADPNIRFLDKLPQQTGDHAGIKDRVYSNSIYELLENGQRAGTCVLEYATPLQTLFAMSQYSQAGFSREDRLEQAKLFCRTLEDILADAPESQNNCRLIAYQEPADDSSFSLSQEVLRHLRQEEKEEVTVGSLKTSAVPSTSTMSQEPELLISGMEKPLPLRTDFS
human STING with truncation of carboxyl-terminal domain (CTD), sequence (Q86WV6 1-340 limits assumed): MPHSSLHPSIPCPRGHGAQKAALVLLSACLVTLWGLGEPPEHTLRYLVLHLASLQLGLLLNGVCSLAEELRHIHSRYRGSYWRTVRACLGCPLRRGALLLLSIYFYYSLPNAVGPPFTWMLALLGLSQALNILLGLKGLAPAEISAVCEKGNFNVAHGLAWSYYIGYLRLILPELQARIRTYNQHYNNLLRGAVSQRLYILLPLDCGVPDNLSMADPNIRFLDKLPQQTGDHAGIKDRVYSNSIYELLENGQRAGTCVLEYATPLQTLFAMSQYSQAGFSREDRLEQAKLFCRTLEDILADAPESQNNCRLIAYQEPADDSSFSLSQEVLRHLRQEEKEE

`O=C(Nc1cccc2ccccc12)c1cc2c(cc1Br)OCO2` [BNBC, 6-bromo-N-(naphthalen-1-yl)benzo[d][1,3]dioxole-5-carboxamide]: the “Induction of ISG54 promoter-driven luciferase expression” value in data set [1] (HepG2/STING/ISG54 reporter cells lacking cGAS) is “concentration-dependently induced ISG54 driven luciferase expression”. Also, in [1] (Minimum Effective Concentration to induce 5-fold luciferase activity relative to mock-treated control, HepG2/STING/ISG54Luc cells, 4 h), the MinEC5X was found to be 2.2 µM. Moreover, the “Maximum induction (fold)” value in data set [1] (maximum fold of luciferase induction, HepG2/STING/ISG54Luc cells, 4 h) came out at 20.5 fold. Also, the results for the “Induction of ISG54-driven luciferase expression” value in [2] and in data set [3] were “induced luciferase expression in a concentration-dependent manner” and “did not induce luciferase expression”, respectively. Moreover, the “Cytotoxicity: concentration up to which no cytotoxicity was detected” value in data set [4] is greater than 200 µM. Also, the “Induction of IFN-β, IL29 (IFN-λ1) and TNF-α mRNA expression” value in data set [5] (HepG2/STING cells) is “concentration-dependently induced IFN-β, IL29 (IFN-λ1) and TNF-α mRNA expression”. The “Induction of IFN-β mRNA expression” value in [6] was “not in parental HepG2 cells, HepG2/STINGΔC cells and HepG2-derived cell line expressing mouse STING (HepG2/mSTING)”. In addition, in data set [7], the “IRF3 phosphorylation and nuclear translocation” value was “only induced IRF3 phosphorylation and nuclear translocation in HepG2/STING cells”. In data set [8], the “Cytotoxicity” value is listed as “absence of cytotoxicity”. For the same molecule, the “Reduction of intracellular DENV RNA level” value in data set [9] (setting [23]) is “up to 90 fold”. For the same molecule, the “Reduction of intracellular YFV RNA level” value in data set [10] (setting [23]) is no more than 150 fold. In [11] (setting [23]), the “Reduction of intracellular ZIKV RNA level” value was no more than 800 fold. In addition, the “Induction of CD80 expression” value in data set [12] was “significantly induced expression of CD80”. Besides, the solubility stood at 3.57 µM (≈ 1.32 µg/mL) in [13] (pH 4, aqueous buffer) and 2.62 µM (≈ 0.97 µg/mL) in data set [13] (pH 7.4, aqueous buffer). The half-life in data set [14] was 20 min; in data set [15], 2.21 min. The same molecule yielded a Papp A→B in [16] of 14.5 ×10⁻⁶ cm/s. In [16], this molecule came in with a Papp B→A of 5.98 ×10⁻⁶ cm/s. The efflux ratio in data set [16] stood at 0.41. For the same molecule, the “Cyp IC50 < 10 μM (number of Cyps/reactions inhibited out of 10)” value in [17] is 5 out of 10 and 5/10. The fraction unbound in data set [18] was 0.0266; in data set [19], 0.0212. The “Effect of STING knockout on compound-induced IFN-β mRNA expression” value in data set [20] (THF cells with knockout of STING, but not TRIF or IPS-1 (MAVS), 50 μM, 6 h) was “completely abolished”. In [20] (THF cells, mRNA 6 h, ELISA 18 h), the “Induction of cytokine mRNA and IFN-β secretion” value was “concentration-dependently induced IFN-β, IL-28A and IL-6 mRNA expression as well as secretion of IFN-β into culture media”. Also, in data set [21], the “Induction of cytokine expression” value is “efficiently induced expression of type I and type III IFN, but to a lesser extent, TNF-α”. In [22], the “Induction of cytokine mRNAs” value was “efficiently induced the expression of IFN-β and IL-29 mRNAs and to a lesser extent, TNF-α and IL-6 mRNAs”.
Turning to `Cc1ccc2c(=O)c3cccc(CC(=O)O)c3oc2c1C` [DMXAA, 5’,6’-dimethylxanthenone-4-acetic acid, reference compound], the “Induction of IFN-β mRNA expression” value in data set [5] (HepG2/STING cells expressing human STING) is reported as “not in HepG2/STING cells”.
Take `O=C(NCc1ccco1)c1ccc2c(c1)N(Cc1c(F)cccc1Cl)C(=O)CS2` [G10, reference compound]: in data set [9] (compared with BNBC), the “Reduction of DENV RNA” value is “reduced virial RNAs in similar potencies”. Moreover, the “Reduction of YFV RNA” value in [10] (compared with BNBC) was “reduced virial RNAs in similar potencies”. For the same molecule, in data set [11] (compared with BNBC), the “Reduction of ZIKV RNA” value is “reduced virial RNAs in similar potencies”.
Consider “Lipopolysaccharides [LPS, reference compound]”, for which the “Induction of CD80 expression” value in data set [12] was “significantly induced expression of CD80”. The “Induction of cytokine mRNAs” value in data set [22] was “efficiently induced the expression of IFN-β and IL-29 mRNAs and to a lesser extent, TNF-α and IL-6 mRNAs”.
